Assay results published in PubChem BioAssay AID2060886 (Molecular Pharmacology Branch, DTP, NCI, 2025).

Tested on: 653999-131-R-J2-PDC complex spheroids, growth inhibition
Test: Anticancer human tumor 653999-131-R-J2-PDC patient-derived lung adenocarcinoma cell line growth inhibition [RAS]
Settings: for viability, T/C: stronger effect = lower value; active = viability on the fitted dose curve at most 10% of control; inactive = the rest
In short: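 Tumour cells grown as complex spheroids with HUVEC endothelial cells and mesenchymal stem cells, treated with RAS pathway inhibitor combinations. Each agent spans half-log steps from near clinical Cmax, or 10 microM where Cmax is unknown.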
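Also: spheroids exposed to the agents for seven days before the readout.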

C#Cc1c(F)ccc2cc(O)cc(-c3ncc4c(N5CC6CCC(C5)N6)nc(OCC56CCCN5CC(F)C6)nc4c3F)c12 (centres undefined)
inactive: viability, T/C (compound 0.0316 µM) 99% [middle of 8 runs] | viability, T/C (compound 0.1 µM) 89.6% [middle of 8 runs] | viability, T/C (compound 0.316 µM) 71.2% [middle of 8 runs] | viability, T/C (compound 1 µM) 58.1% [middle of 8 runs] | viability, T/C (compound 3.16 µM) 43.8% [middle of 8 runs] | viability, T/C (compound 10 µM) 31.8% [middle of 8 runs]
1.88 µM [middle of 8 runs]: IC50 (compound alone, run of 09/09/2024)

C=CC(=O)N1CCN(c2nc(OCC3CCCN3C)nc3c(F)c(-c4nc(N)cc(C)c4C(F)(F)F)c(Cl)cc23)C(C)C1 (centres undefined) + C#Cc1c(F)ccc2cc(O)cc(-c3ncc4c(N5CC6CCC(C5)N6)nc(OCC56CCCN5CC(F)C6)nc4c3F)c12
< 0.00316 µM: IC50 (curve of first compound, second compound 3.16 µM) | IC50 (curve of first compound, second compound 10 µM)
inactive: viability, T/C (second compound 0.0316 µM, first compound 0.00316 µM) 117% | viability, T/C (second compound 0.0316 µM, first compound 0.01 µM) 91.3% | viability, T/C (second compound 0.0316 µM, first compound 0.0316 µM) 95.9% | viability, T/C (second compound 0.0316 µM, first compound 0.1 µM) 82.3% | viability, T/C (second compound 0.0316 µM, first compound 0.316 µM) 99.1% | viability, T/C (second compound 0.0316 µM, first compound 1 µM) 85.2% | viability, T/C (second compound 0.1 µM, first compound 0.00316 µM) 92.7% | viability, T/C (second compound 0.1 µM, first compound 0.01 µM) 84.1% | viability, T/C (second compound 0.1 µM, first compound 0.0316 µM) 73.9% | viability, T/C (second compound 0.1 µM, first compound 0.1 µM) 78.5% | viability, T/C (second compound 0.1 µM, first compound 0.316 µM) 83.3% | viability, T/C (second compound 0.1 µM, first compound 1 µM) 73.1% | viability, T/C (second compound 0.316 µM, first compound 0.00316 µM) 71.7% | viability, T/C (second compound 0.316 µM, first compound 0.01 µM) 62.5% | viability, T/C (second compound 0.316 µM, first compound 0.0316 µM) 65.6% | viability, T/C (second compound 0.316 µM, first compound 0.1 µM) 67.8% | viability, T/C (second compound 0.316 µM, first compound 0.316 µM) 70.2% | viability, T/C (second compound 0.316 µM, first compound 1 µM) 52.8% | viability, T/C (second compound 1 µM, first compound 0.00316 µM) 41.5% | viability, T/C (second compound 1 µM, first compound 0.01 µM) 63% | viability, T/C (second compound 1 µM, first compound 0.0316 µM) 54% | viability, T/C (second compound 1 µM, first compound 0.1 µM) 53.8% | viability, T/C (second compound 1 µM, first compound 0.316 µM) 55.4% | viability, T/C (second compound 1 µM, first compound 1 µM) 46.5% | viability, T/C (second compound 3.16 µM, first compound 0.00316 µM) 38% | viability, T/C (second compound 3.16 µM, first compound 0.01 µM) 55.2% | viability, T/C (second compound 3.16 µM, first compound 0.0316 µM) 39% | viability, T/C (second compound 3.16 µM, first compound 0.1 µM) 35% | viability, T/C (second compound 3.16 µM, first compound 0.316 µM) 43.8% | viability, T/C (second compound 3.16 µM, first compound 1 µM) 31.4% | viability, T/C (second compound 10 µM, first compound 0.00316 µM) 24.5% | viability, T/C (second compound 10 µM, first compound 0.01 µM) 26.7% | viability, T/C (second compound 10 µM, first compound 0.0316 µM) 20.8% | viability, T/C (second compound 10 µM, first compound 0.1 µM) 31.9% | viability, T/C (second compound 10 µM, first compound 0.316 µM) 27% | viability, T/C (second compound 10 µM, first compound 1 µM) 29.6%
> 1 µM: IC50 (curve of first compound, second compound 0.0316 µM) | IC50 (curve of first compound, second compound 0.1 µM) | IC50 (curve of first compound, second compound 0.316 µM) | IC50 (curve of first compound, second compound 1 µM)
